Data set [1] is described as follows: Storage stability test (X-ray powder diffraction at various humidities and storage conditions). The data set is classed as physicochemical. On the procedure: (2) Humidity-Controlled Measurement “MAC Science […] 22 with a multifunctional humidity and temperature converter ([…] 235)” equipped with a copper X-ray tube was used under the conditions of a current of 350 mA, a tube voltage of 50 kV, a sampling width of 0.020°, a scanning rate of 3°/min, wavelength of 1.54056 Å, and measurement angles of diffraction range of (2θ): 5 to 40°. [Storage Stability Test] The measurement of X-ray powder diffraction was conducted continuously at 25° C. in a relative humidity range of 2 to 88%.

A further data set deals with KK-A^y mice. Description: Test for confirming effect of antihyperglycemic action (blood sugar AUC 0 to 8 hours). Type of data set: in vivo. The settings on record: non-fasted male KK-A^y mice, oral, 1 mg/10 mL suspension at 10 mL/kg. How it is done: (Test 2): [Test for Confirming Effect of Antihyperglycemic Action] Non-fasted KK-A^y mice (Clea Japan, Inc., male) were used as a test animal. The cocrystal of the present invention was suspended in an aqueous 0.5% methyl cellulose solution, in a concentration of 1 mg/10 mL. The body weight of each mouse was measured, and the suspension of the cocrystal of the present invention was forcibly administered orally in an amount of 10 mL/kg. Only the aqueous 0.5% methyl cellulose solution was administered to a control group. The number of mice per each group was 6. Blood samples were taken from the tail vein of each mouse right before administration and 1, 2, 4 and 8 hours after administration. Blood sugar value was measured using Glucose CII Test Wako (Wako Pure Chemical Industries, ltd.). From the blood sugar values of the cocrystal of the present invention-administered group at 0 to 8 hours were calculated an area under blood sugar value-time curve (AUC) according to the trapezoidal method; a ratio (%) of that area to the area of control group was determined; and it was taken as intensity of […] action.

Data set [2] can be described thus: Moisture absorptivity test (weight change, VTI SGS-100). The data set is classed as physicochemical. Particulars: for moisture absorption behaviour: interval 5%. On the procedure:
[Moisture Absorptivity Test] Weight change was measured by using of “VTI SGS-100” under the conditions of temperature=25° C., relative humidity range=5 to 95%, and relative humidity interval=5%. […] Further, while known compound A gives moisture absorption curves slightly different from each other depending upon the particle size and crystal habit, there was a case that 3.2% of water was desorbed and absorbed at 25° C. at 5 to 95% RH.

For data set [3], the target named is Human Na^+-Glucose Cotransporter (Human SGLT2) (Homo sapiens, UniProt P31639). In words: cell-based.
Protocol: (Test 1) [Test for Confirming Effect of Inhibiting Activity of Human Na^+-Glucose Cotransporter (Human SGLT2)]
3) Measurement of Inhibition of methyl-α-D-glucopyranoside Intake
After removing the medium of a CHO cell which stably express the human SGLT2, a pretreatment buffer solution (buffer solution of pH 7.4 containing choline chloride (140 mM), potassium chloride (2 mM), calcium chloride (1 mM), magnesium chloride (1 mM), 2-[4-(2-hydroxyethyl)-1-piperazinyl]ethanesulfonic acid (10 mM), and tris(hydroxymethyl)aminomethane (5 mM)) was added in the amount of 100 μl per well, and incubated at 37° C. for 20 minutes.
11 μl of methyl-α-D-(U-14C) glucopyranoside
(manufactured by Amersham Pharmacia Biotech) was added to and mixed with 1,000 μl of a buffer solution for intake containing a cocrystal of the present invention (buffer solution of pH 7.4 containing sodium chloride (140 mM), potassium chloride (2 mM), calcium chloride (1 mM), magnesium chloride (1 mM), methyl-α-D-glucopyranoside (50 μM), 2-[4-(2-hydroxyethyl)-1-piperazinyl]ethanesulfonic acid (10 mM), and tris(hydroxymethyl)aminomethane (5 mM)) to prepare a buffer solution for intake. A buffer solution for intake without a test crystal was prepared for a control group. […]
The mark [4] stands for this setting: 25° C., relative humidity range 5 to 95%.

Sequence of Human Na^+-Glucose Cotransporter (Human SGLT2) (P31639 whole entry): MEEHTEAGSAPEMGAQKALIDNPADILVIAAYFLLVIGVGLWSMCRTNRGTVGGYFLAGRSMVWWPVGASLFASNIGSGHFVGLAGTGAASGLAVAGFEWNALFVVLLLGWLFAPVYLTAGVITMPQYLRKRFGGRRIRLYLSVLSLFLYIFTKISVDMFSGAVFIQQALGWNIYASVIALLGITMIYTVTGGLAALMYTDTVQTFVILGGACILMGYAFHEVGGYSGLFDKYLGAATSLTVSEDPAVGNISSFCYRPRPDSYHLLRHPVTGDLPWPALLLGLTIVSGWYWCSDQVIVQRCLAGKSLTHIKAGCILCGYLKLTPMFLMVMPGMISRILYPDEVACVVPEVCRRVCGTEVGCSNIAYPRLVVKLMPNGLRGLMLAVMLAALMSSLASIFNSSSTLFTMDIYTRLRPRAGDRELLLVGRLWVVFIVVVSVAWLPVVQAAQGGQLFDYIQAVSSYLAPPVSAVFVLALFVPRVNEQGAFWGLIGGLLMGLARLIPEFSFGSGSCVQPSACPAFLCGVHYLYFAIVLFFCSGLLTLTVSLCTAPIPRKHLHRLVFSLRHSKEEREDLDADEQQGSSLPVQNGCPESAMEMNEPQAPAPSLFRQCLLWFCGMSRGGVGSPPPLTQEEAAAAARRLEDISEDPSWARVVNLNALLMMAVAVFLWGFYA

`OC[C@H]1O[C@@H](c2ccc(F)c(Cc3cc4ccccc4s3)c2)[C@H](O)[C@@H](O)[C@@H]1O` [cocrystal of the present invention, cocrystal of (1S)-1,5-anhydro-1-[3-(1-benzothien-2-ylmethyl)-4-fluorophenyl]-D-glucitol and L-proline]: the “physical stability on standing” value in data set [1] (40° C./75% RH/open), in data set [1] (60° C./uncontrolled humidity) and in data set [1] (80° C./uncontrolled humidity) was “physically stable for at least two months” in each case. Further, in data set [1] (up to 7 days at room temperature (25° C.) at 63.5% RH to 84% RH), the “physical change on standing” value is recorded as “no physical change”. The “intensity of antihyperglycemic action (ratio of blood sugar AUC to control group)” value in the data set with KK-A^y mice was “strong antihypoglycemic action”. For the same compound, in data set [2] (setting [4]), the “physical stability in the moisture absorptivity test” value is “stable physically”. Besides, the moisture absorption behaviour result in data set [2] (setting [4]) is “no moisture absorptivity”. For the same compound, the moisture content in data set [2] (25° C., total relative humidity range of 5 to 95%) was no more than 0.7%. It took 5.8 nM to reach half-maximal inhibition in data set [3] (IC50).
For the compound `OC[C@H]1O[C@@H](c2ccc(F)c(Cc3cc4ccccc4s3)c2)[C@H](O)[C@@H](O)[C@@H]1O` [known compound A, (1S)-1,5-anhydro-1-[3-(1-benzothien-2-ylmethyl)-4-fluorophenyl]-D-glucitol, reference compound], in data set [1] (25° C., relative humidity range of 2 to 88%, continuous measurement), the “X-ray powder diffraction change associated with the change of relative humidity” value was “shift of diffraction angle”. Besides, in data set [1] (crystals from various crystallization conditions, room temperature and low humidity), the “physical stability of crystals of free form” value is recorded as “physically unstable crystals”. In addition, the “water desorbed and absorbed” value in data set [2] (25° C. at 5 to 95% RH) worked out at 3.2%. For the same compound, the weight change result in data set [2] (25° C., from relative humidity of 25 to 35%) is “sharp increase in weight”. Further, in data set [2] (setting [4]), the moisture absorption behaviour entry is listed as “non-stoichiometric moisture absorption accompanied by physical change at low humidity”.

A word on the IC50: it is the concentration that inhibits the measured activity by half.

(Values after patent US8097592B2, “Cocrystal of C-glycoside derivative and L-proline” (Astellas Pharma Inc., priority 2006, dated 2012).)
